Patent publication US20080274892A1, “Novel Haloalkylsulfonanilide Derivative, Herbicide, and Method of Use Thereof” (priority 2005, published 2008)

How the values were obtained:
false pimpernel [1] = assay: Test Example 2: herbicidal efficacy on rice paddy weeds post-emergence; format: in vivo, Lindernia pyxidaria; settings: post-emergence, one leaf stage, 21 days after treatment
[2] = tested on: transplanted paddy rice plant and Bulrush; assay: Test Example 5: selectivity between transplanted paddy rice plant and weeds; format: in vivo; settings: (highest dosage with no phytotoxicity to paddy rice)/(lowest dosage with effective level 4 on Bulrush); rice 3000-100 g/ha, Bulrush 300-10 g/ha; 21 days
Experimental: (§1) The standard of judgment for herbicidal efficacy (degree of growth inhibition) and phytotoxicity 4 . . . 90%-100% of herbicidal efficacy or phytotoxicity 3 . . . 70%-89% of herbicidal efficacy or phytotoxicity 2 . . . 40%-69% of herbicidal efficacy or phytotoxicity 1 . . . 1%-39% of herbicidal efficacy or phytotoxicity 0 . . . 0% of herbicidal efficacy or phytotoxicity
Phytotoxicity test for transplanted paddy rice plants was carried out, as in Test Example 3, by the treatment of 3000, 1000, 300 and 100 (g/ha of the active ingredient) dosage, and herbicidal test to weed post-emergence was carried out to Burlush seeded as in Test Example 2 treating at 300, 100, 30 and 10 (g/ha) dosage. The pots were kept in a hot house for 21 days after the treatment, and the phytotoxicity and the herbicidal efficacy was investigated and evaluated according to the standard in Test Example 1 by comparing with the untreated control. […] Further, as a comparative compound, the compound No. 6-28 described in the JP-A-2004-107322 was used.

barnyard glass = assay: Test Example 2: herbicidal efficacy on rice paddy weeds post-emergence; format: in vivo, Echinochloa crus-galli; settings: post-emergence, one leaf stage, 21 days after treatment
How it was run: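 Efficacy on paddy weeds was scored on a 0 to 4 growth-inhibition scale: 4 for 90%-100%, 3 for 70%-89%, 2 for 40%-69%, 1 for 1%-39% and 0 for 0%. Barnyard glass was grown in clay loam in 75 cm^2 pots under 5 cm of water in a hot house. It was compared with untreated pots 21 days after treatment.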

[3] = tested on: paddy rice plant (cultivar: Nihonbare); assay: Test Example 3: phytotoxicity test for transplanted paddy rice plant; format: in vivo; settings: transplanted rice, 21 days after treatment
How it was run: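 Clay loam soil was placed in a 75 cm^2 plastic pot and flooded to a water depth of 5 cm. Two Nihonbare paddy rice plants at the two-leaf stage were transplanted 1 cm deep and grown in a hot house. After treatment, pots stayed in the hot house for 21 days, and phytotoxicity was then graded against an untreated control.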

bulrush [4] = assay: Test Example 2: herbicidal efficacy on rice paddy weeds post-emergence; format: in vivo, Scirpus juncoides; settings: post-emergence, one leaf stage, 21 days after treatment
bulrush [5] = assay: Test Example 4: low dosage test for rice paddy weeds; format: in vivo, Scirpus juncoides; settings: 300 g/ha as an active ingredient; plants treated at the one leaf stage; 21 days after treatment; vs untreated control
From the text: as §1
A 75 cm^2 plastic pot was filled with soil (clay loam) and planted seeds of bulrush which is a rice paddy weed. After covering the top with 75 cm^3 soil, the pot was filled with water so that the soil submerged under 5 cm depth of water and kept in a hot house. The test plants, at the one leaf stage, were treated with the solution of a formulation containing the compound of the present invention as an active ingredient at the predetermined effective dosage (300 g/ha as an active ingredient). The pots were kept in a hot house for 21 days after the treatment and the herbicidal efficacy was investigated and evaluated according to the standard in Test Example 1 by comparing with the untreated control. Further, as a comparative compound, the compound No. 6-28 described in the JP-A-2004-107322 was used.

bulrush [6] = assay: Test Example 1: herbicidal efficacy on rice paddy weeds pre-emergence; format: in vivo, Scirpus juncoides; settings: 21 days
false pimpernel [7] = assay: as above; format: in vivo, Lindernia pyxidaria; settings: 21 days
[8] = dosage 1000 g/ha, treated 5 days after transplantation

| SMILES | False pimpernel post (herbicidal efficacy grade) (false pimpernel [1]; dosage 1000 g/ha) | Selective Index [2] | Burnyard grass post (herbicidal efficacy grade) (barnyard glass; dosage 1000 g/ha) | Phytotoxicity to paddy rice [3, 8] | Bulrush post (herbicidal efficacy grade) (bulrush [4]; dosage 1000 g/ha) | Herbicide effect to Bulrush (bulrush [5]) | Bulrush pre (herbicidal efficacy grade) (bulrush [6]; dosage 1000 g/ha) | False pimpernel pre (herbicidal efficacy grade) (false pimpernel [7]; dosage 1000 g/ha) | False pimpernel post (herbicidal efficacy grade) (false pimpernel [1]; dosage 300 g/ha) | Burnyard grass post (herbicidal efficacy grade) (barnyard glass; dosage 300 g/ha) | Phytotoxicity to paddy rice ([3]; dosage 300 g/ha) | Bulrush post (herbicidal efficacy grade) (bulrush [4]; dosage 300 g/ha) | Bulrush pre (herbicidal efficacy grade) (bulrush [6]; dosage 300 g/ha) | False pimpernel pre (herbicidal efficacy grade) (false pimpernel [7]; dosage 300 g/ha) |
| --- | --- | --- | --- | --- | --- | --- | --- | --- | --- | --- | --- | --- | --- | --- |
| CC(C)OC(=O)N(c1ccccc1CN1CC(C)(C2CC2)OC1=O)S(=O)(=O)C(F)(F)F (racemic) [1-118] | 4 (90%-100% of herbicidal efficacy or phytotoxicity) | 30 | 4 (90%-100% of herbicidal efficacy or phytotoxicity) | 1 (1%-39% of herbicidal efficacy or phytotoxicity) | 4 (90%-100% of herbicidal efficacy or phytotoxicity) | 4 (90%-100% of herbicidal efficacy or phytotoxicity) | 4 (90%-100% of herbicidal efficacy or phytotoxicity) | 4 (90%-100% of herbicidal efficacy or phytotoxicity) |  |  |  |  |  |  |
| COCCOC(=O)N(c1ccccc1CN1CC(C)(C2CC2)OC1=O)S(=O)(=O)C(F)(F)F (racemic) [1-119] | 4 (90%-100% of herbicidal efficacy or phytotoxicity) | 30 | 4 (90%-100% of herbicidal efficacy or phytotoxicity) | 1 (1%-39% of herbicidal efficacy or phytotoxicity) | 4 (90%-100% of herbicidal efficacy or phytotoxicity) | 4 (90%-100% of herbicidal efficacy or phytotoxicity) | 4 (90%-100% of herbicidal efficacy or phytotoxicity) | 4 (90%-100% of herbicidal efficacy or phytotoxicity) |  |  |  |  |  |  |
| CCCC1(C)CN(Cc2ccccc2NS(=O)(=O)C(F)(F)F)C(=O)O1 (racemic) [1-120] |  | 10 |  |  |  | 4 (90%-100% of herbicidal efficacy or phytotoxicity) |  |  | 4 (90%-100% of herbicidal efficacy or phytotoxicity) | 3 (70%-89% of herbicidal efficacy or phytotoxicity) | 2 (40%-69% of herbicidal efficacy or phytotoxicity) | 4 (90%-100% of herbicidal efficacy or phytotoxicity) | 4 (90%-100% of herbicidal efficacy or phytotoxicity) | 4 (90%-100% of herbicidal efficacy or phytotoxicity) |
| CCCC1(C)CN(Cc2ccccc2N(C(=O)OCC(C)C)S(=O)(=O)C(F)(F)F)C(=O)O1 (racemic) [1-122] | 4 (90%-100% of herbicidal efficacy or phytotoxicity) | 10 | 4 (90%-100% of herbicidal efficacy or phytotoxicity) | 1 (1%-39% of herbicidal efficacy or phytotoxicity) | 4 (90%-100% of herbicidal efficacy or phytotoxicity) | 4 (90%-100% of herbicidal efficacy or phytotoxicity) | 4 (90%-100% of herbicidal efficacy or phytotoxicity) | 4 (90%-100% of herbicidal efficacy or phytotoxicity) |  |  |  |  |  |  |
| COC(=O)N(c1ccccc1CN1CC(C)(CC(C)C)OC1=O)S(=O)(=O)C(F)(F)F (racemic) [1-124] | 4 (90%-100% of herbicidal efficacy or phytotoxicity) | 10 | 4 (90%-100% of herbicidal efficacy or phytotoxicity) | 1 (1%-39% of herbicidal efficacy or phytotoxicity) | 4 (90%-100% of herbicidal efficacy or phytotoxicity) | 4 (90%-100% of herbicidal efficacy or phytotoxicity) | 4 (90%-100% of herbicidal efficacy or phytotoxicity) | 4 (90%-100% of herbicidal efficacy or phytotoxicity) |  |  |  |  |  |  |
| CCOC(=O)N(c1ccccc1CN1CC(C)(CC(C)C)OC1=O)S(=O)(=O)C(F)(F)F (racemic) [1-125] | 4 (90%-100% of herbicidal efficacy or phytotoxicity) | 10 | 4 (90%-100% of herbicidal efficacy or phytotoxicity) | 1 (1%-39% of herbicidal efficacy or phytotoxicity) | 4 (90%-100% of herbicidal efficacy or phytotoxicity) | 4 (90%-100% of herbicidal efficacy or phytotoxicity) | 4 (90%-100% of herbicidal efficacy or phytotoxicity) | 4 (90%-100% of herbicidal efficacy or phytotoxicity) |  |  |  |  |  |  |
| CCCC1(C)CN(Cc2ccccc2N(C(=O)OC)S(=O)(=O)C(F)(F)F)C(=O)O1 (racemic) [1-126] | 4 (90%-100% of herbicidal efficacy or phytotoxicity) | 10 | 4 (90%-100% of herbicidal efficacy or phytotoxicity) | 2 (40%-69% of herbicidal efficacy or phytotoxicity) | 4 (90%-100% of herbicidal efficacy or phytotoxicity) | 4 (90%-100% of herbicidal efficacy or phytotoxicity) | 4 (90%-100% of herbicidal efficacy or phytotoxicity) | 4 (90%-100% of herbicidal efficacy or phytotoxicity) |  |  |  |  |  |  |
| CCCC1(C)CN(Cc2ccccc2N(C(=O)OCC)S(=O)(=O)C(F)(F)F)C(=O)O1 (racemic) [1-127] | 4 (90%-100% of herbicidal efficacy or phytotoxicity) | 30 | 4 (90%-100% of herbicidal efficacy or phytotoxicity) | 1 (1%-39% of herbicidal efficacy or phytotoxicity) | 4 (90%-100% of herbicidal efficacy or phytotoxicity) | 4 (90%-100% of herbicidal efficacy or phytotoxicity) | 4 (90%-100% of herbicidal efficacy or phytotoxicity) | 4 (90%-100% of herbicidal efficacy or phytotoxicity) |  |  |  |  |  |  |
| CC1COC(=O)N1Cc1ccccc1NS(=O)(=O)C(F)(F)F (stereo not shown) [1-3] | 4 (90%-100% of herbicidal efficacy or phytotoxicity) | 3.3 | 4 (90%-100% of herbicidal efficacy or phytotoxicity) | 4 (90%-100% of herbicidal efficacy or phytotoxicity) | 4 (90%-100% of herbicidal efficacy or phytotoxicity) | 4 (90%-100% of herbicidal efficacy or phytotoxicity) | 4 (90%-100% of herbicidal efficacy or phytotoxicity) | 4 (90%-100% of herbicidal efficacy or phytotoxicity) |  |  |  |  |  |  |
| CC(C)COC(=O)N(c1ccccc1CN1C(=O)OCC1C)S(=O)(=O)C(F)(F)F (stereo not shown) [1-4] | 4 (90%-100% of herbicidal efficacy or phytotoxicity) | 10 | 4 (90%-100% of herbicidal efficacy or phytotoxicity) | 2 (40%-69% of herbicidal efficacy or phytotoxicity) | 4 (90%-100% of herbicidal efficacy or phytotoxicity) | 4 (90%-100% of herbicidal efficacy or phytotoxicity) | 4 (90%-100% of herbicidal efficacy or phytotoxicity) | 4 (90%-100% of herbicidal efficacy or phytotoxicity) |  |  |  |  |  |  |
| CC1CN(Cc2ccccc2NS(=O)(=O)C(F)(F)F)C(=O)O1 (stereo not shown) [1-17] | 4 (90%-100% of herbicidal efficacy or phytotoxicity) | 10 | 4 (90%-100% of herbicidal efficacy or phytotoxicity) | 0 (0% of herbicidal efficacy or phytotoxicity) | 4 (90%-100% of herbicidal efficacy or phytotoxicity) | 3 (70%-89% of herbicidal efficacy or phytotoxicity) | 4 (90%-100% of herbicidal efficacy or phytotoxicity) | 4 (90%-100% of herbicidal efficacy or phytotoxicity) |  |  |  |  |  |  |
